ChEMBL document CHEMBL3885881, “DrugMatrix”

Species: Rattus norvegicus
Test: DrugMatrix - Regimen: Daily Repeat
Assay type: toxicity, organism-based, Sprague-Dawley
Set-up: regimen Daily Repeat, gender Male, age 6-8 weeks
Settings: in vivo, po, route oral GAVAGE, vehicle .5 % CMC; for ABSOLUTE BASOPHIL / ABSOLUTE EOSINOPHIL / ABSOLUTE LYMPHOCYTE / ABSOLUTE MONOCYTE / ABSOLUTE SEGMENTED NEUTROPHIL / BASOPHIL / EOSINOPHIL / ERYTHROCYTE COUNT / HEMATOCRIT / HEMOGLOBIN / LEUKOCYTE COUNT / LYMPHOCYTE / MEAN CORPUSCULAR HEMOGLOBIN / MEAN CORPUSCULAR HEMOGLOBIN CONCENTRATION / MEAN CORPUSCULAR VOLUME / MONOCYTE / NEUTROPHIL / NUCLEATED RED BLOOD CELLS / PLATELET COUNT: tissue Blood; for ALANINE AMINOTRANSFERASE / ALBUMIN / ALKALINE PHOSPHATASE / ASPARTATE AMINOTRANSFERASE / BLOOD UREA NITROGEN / CARBON DIOXIDE / CHLORIDE / CHOLESTEROL / CREATINE PHOSPHOKINASE / CREATININE / GLUCOSE / LACTATE DEHYDROGENASE / LIPASE / PHOSPHORUS / POTASSIUM / SODIUM / TOTAL BILIRUBIN / TOTAL PROTEIN / URIC ACID: tissue Plasma
[1] = 0 mg/kg, 72 h, dose level Control, time 3 day
[2] = 0 mg/kg, 120 h, dose level Control, time 5 day
[3] = 75 mg/kg, 72 h, dose level High, time 3 day

Cc1ccc(/N=C/N(C)/C=N/c2ccc(C)cc2C)c(C)c1 [AMITRAZ]
ABSOLUTE BASOPHIL [1]: 0 CELLS/uL | ABSOLUTE EOSINOPHIL [1]: 0 CELLS/uL | ABSOLUTE LYMPHOCYTE [1]: 12269.67 CELLS/uL | ABSOLUTE MONOCYTE [1]: 160.33 CELLS/uL | ABSOLUTE SEGMENTED NEUTROPHIL [1]: 970 CELLS/uL | BASOPHIL [1]: 0% | EOSINOPHIL [1]: 0% | ERYTHROCYTE COUNT [1]: 5.76 x10E6/uL | HEMATOCRIT [1]: 36.57% | HEMOGLOBIN [1]: 14.22 G/DL | LEUKOCYTE COUNT [1]: 13.4 x10E3/uL | LYMPHOCYTE [1]: 91.67% | MEAN CORPUSCULAR HEMOGLOBIN [1]: 24.67 pg | MEAN CORPUSCULAR HEMOGLOBIN CONCENTRATION [1]: 38.85 G/DL | MEAN CORPUSCULAR VOLUME [1]: 63.52 fL | MONOCYTE [1]: 1.17% | NEUTROPHIL [1]: 7.17% | NUCLEATED RED BLOOD CELLS [1]: 0.33 /100WBC | PLATELET COUNT [1]: 1250.83 x10E3/uL | ALANINE AMINOTRANSFERASE [1]: 49.17 u/L | ALBUMIN [1]: 4.33 G/DL | ALKALINE PHOSPHATASE [1]: 378.5 u/L | ASPARTATE AMINOTRANSFERASE [1]: 82.17 u/L | BLOOD UREA NITROGEN [1]: 15 mg/dL | CARBON DIOXIDE [1]: 34.33 mmol/L | CHLORIDE [1]: 99.17 MEQ/L | CHOLESTEROL [1]: 71.17 mg/dL | CREATINE PHOSPHOKINASE [1]: 258.67 u/L | CREATININE [1]: 0.18 mg/dL | GLUCOSE [1]: 142.67 mg/dL | LACTATE DEHYDROGENASE [1]: 154.33 u/L | LIPASE [1]: 9 u/L | PHOSPHORUS [1]: 11.67 mg/dL | POTASSIUM [1]: 7.13 MEQ/L | SODIUM [1]: 142.22 MEQ/L | TOTAL BILIRUBIN [1]: 0.18 mg/dL | TOTAL PROTEIN [1]: 5.77 G/DL | URIC ACID [1]: 1.55 mg/dL | ABSOLUTE BASOPHIL [2]: 0 CELLS/uL | ABSOLUTE EOSINOPHIL [2]: 23.33 CELLS/uL | ABSOLUTE LYMPHOCYTE [2]: 14943.67 CELLS/uL | ABSOLUTE MONOCYTE [2]: 32 CELLS/uL | ABSOLUTE SEGMENTED NEUTROPHIL [2]: 1084.33 CELLS/uL | BASOPHIL [2]: 0% | EOSINOPHIL [2]: 0.17% | ERYTHROCYTE COUNT [2]: 5.71 x10E6/uL | HEMATOCRIT [2]: 35.28% | HEMOGLOBIN [2]: 14.27 G/DL | LEUKOCYTE COUNT [2]: 16.08 x10E3/uL | LYMPHOCYTE [2]: 93% | MEAN CORPUSCULAR HEMOGLOBIN [2]: 25.02 pg | MEAN CORPUSCULAR HEMOGLOBIN CONCENTRATION [2]: 40.43 G/DL | MEAN CORPUSCULAR VOLUME [2]: 61.82 fL | MONOCYTE [2]: 0.17% | NEUTROPHIL [2]: 6.67% | NUCLEATED RED BLOOD CELLS [2]: 0.33 /100WBC | PLATELET COUNT [2]: 1274 x10E3/uL | ALANINE AMINOTRANSFERASE [2]: 54.17 u/L | ALBUMIN [2]: 4.22 G/DL | ALKALINE PHOSPHATASE [2]: 373.17 u/L | ASPARTATE AMINOTRANSFERASE [2]: 81.83 u/L | BLOOD UREA NITROGEN [2]: 16.67 mg/dL | CARBON DIOXIDE [2]: 30.33 mmol/L | CHLORIDE [2]: 99 MEQ/L | CHOLESTEROL [2]: 71 mg/dL | CREATINE PHOSPHOKINASE [2]: 273.5 u/L | CREATININE [2]: 0.22 mg/dL | GLUCOSE [2]: 141.83 mg/dL | LACTATE DEHYDROGENASE [2]: 153.67 u/L | LIPASE [2]: 10.33 u/L | PHOSPHORUS [2]: 11.38 mg/dL | POTASSIUM [2]: 7.08 MEQ/L | SODIUM [2]: 142.75 MEQ/L | TOTAL BILIRUBIN [2]: 0.18 mg/dL | TOTAL PROTEIN [2]: 6.1 G/DL | URIC ACID [2]: 1.67 mg/dL | ABSOLUTE BASOPHIL [3]: 0 CELLS/uL | ABSOLUTE EOSINOPHIL [3]: 0 CELLS/uL | ABSOLUTE LYMPHOCYTE [3]: 12442 CELLS/uL | ABSOLUTE MONOCYTE [3]: 223 CELLS/uL | ABSOLUTE SEGMENTED NEUTROPHIL [3]: 868.33 CELLS/uL | BASOPHIL [3]: 0% | EOSINOPHIL [3]: 0% | ERYTHROCYTE COUNT [3]: 6.64 x10E6/uL | HEMATOCRIT [3]: 42% | HEMOGLOBIN [3]: 16.13 G/DL | LEUKOCYTE COUNT [3]: 13.53 x10E3/uL | LYMPHOCYTE [3]: 92.33% | MEAN CORPUSCULAR HEMOGLOBIN [3]: 24.27 pg | MEAN CORPUSCULAR HEMOGLOBIN CONCENTRATION [3]: 38.4 G/DL | MEAN CORPUSCULAR VOLUME [3]: 63.23 fL | MONOCYTE [3]: 1.67% | NEUTROPHIL [3]: 6% | NUCLEATED RED BLOOD CELLS [3]: 0 /100WBC | PLATELET COUNT [3]: 1347.33 x10E3/uL | ALANINE AMINOTRANSFERASE [3]: 35.67 u/L | ALBUMIN [3]: 3.93 G/DL | ALKALINE PHOSPHATASE [3]: 354 u/L | ASPARTATE AMINOTRANSFERASE [3]: 84.33 u/L | BLOOD UREA NITROGEN [3]: 20 mg/dL | CARBON DIOXIDE [3]: 34.67 mmol/L | CHLORIDE [3]: 101.67 MEQ/L | CHOLESTEROL [3]: 49 mg/dL | CREATINE PHOSPHOKINASE [3]: 285.33 u/L | CREATININE [3]: 0.3 mg/dL | GLUCOSE [3]: 211 mg/dL | LACTATE DEHYDROGENASE [3]: 230 u/L | LIPASE [3]: 8.33 u/L | PHOSPHORUS [3]: 11.13 mg/dL | POTASSIUM [3]: 6.26 MEQ/L | SODIUM [3]: 146.5 MEQ/L | TOTAL BILIRUBIN [3]: 0.23 mg/dL | TOTAL PROTEIN [3]: 5.2 G/DL | URIC ACID [3]: 1.83 mg/dL
